Reference: a melting point compilation (Tetko et al.; mined from patent text by program, amines drawn as free bases though some values may be those of a salt)

Row | melting point [°C] | Structure (SMILES)
1 | 155 to 157 | CCN(CC)c1nc2ccccc2n2c(C(F)(F)F)nnc12
2 | 78 to 81 | CCOC(=O)C(=NOC)C1=CSc2ccccc2S1
3 | 198 to 200 | Cc1nn2ccccc2c1C(=O)C1=CN(C(=O)Nc2ccc(Cl)cc2)CCC1
4 | 119 to 121 | O=C1COC[C@@H](c2cccc(F)c2)N1
5 | 127 to 128 | CCOC(=O)c1ncn(Cc2ccccc2)c1OC
6 | 141 to 142 | O=C(O)C(Oc1ccc(Cl)cc1)c1ccc(Oc2ccc(Cl)cc2)cc1 (centres undefined)
7 | 95 | NCC1COc2cc(Cl)cc(-c3ccc(Cl)cc3C(F)(F)F)c2N1 (centres undefined)
8 | 72 to 73 | COc1ccc2c(c1)CCc1ccccc1C2=O
9 | 128 to 130 | CNC(=O)c1cccc(C(=O)OC)c1
10 | 125 to 128 | COc1cc(Cl)c2c(c1)CCN2c1cc(NC(C)C2CCC2)nc(C)n1 (centres undefined)
11 | 110 to 111 | COC(=O)C(Br)Cc1ccc(OC)c(C(=O)NCc2ccc(C(F)(F)F)cc2)c1 (centres undefined)
12 | 140 to 142 | CCCC(=O)NCC1(C)Cc2c(C)c(N3CCN(c4ccc(OC)cc4)CC3)c(C)c(C)c2O1 (centres undefined)
13 | 143 to 144 | CCCc1c(OCCCOc2ccc(C(=O)CCC(=O)O)c(Cl)c2)ccc(C(C)=O)c1O
14 | 133 to 135 | CC(C)OC(=O)C(C)n1c(C(F)(F)F)nc2cc(F)c(-n3c(=O)cc(C(F)(F)F)n(C)c3=O)cc21 (centres undefined)
15 | 117 | C=C(C)n1c(=O)n(CC2CN(Cc3ccccc3)CCO2)c2ccccc21 (centres undefined)
16 | 47 | CNc1cc(C)ccc1C(C)=O
17 | 85 to 87 | CCCCCCCCNC(=O)ON=C(C1=CC(=O)C(C)(C2CCCCC2)O1)c1ccccc1 (centres undefined)
18 | 177 | O=c1[nH]c2ccccc2n1CCN1CCC(Nc2nc3cccnc3n2CCOCCO)CC1
19 | 210 to 212 | O=C1c2ccccc2-c2c1c1ccccc1c(=O)n2CCCl
20 | 155 to 156 | CCOC(=O)c1ccc2c(c1)CCCC2Cn1ccnc1S (centres undefined)
21 | 63 to 65 | COC(=O)C1CC(=O)N(Cc2ccccc2)C1 (centres undefined)
22 | 200 | CC1(C)CCC(C)(C)c2cc([N+](=O)[O-])c([N+](=O)[O-])cc21
23 | 194 to 195 | CN1C(=O)CC(c2c[nH]c3ccc(Br)cc23)C1=O (centres undefined)
24 | 114 to 116 | c1ccc(C(c2ccccc2)N2CCN(Cc3cscn3)CC2)cc1
25 | 104 to 106 | O=Cc1c2c(cc3ccccc13)Cc1ccccc1-2
26 | 232 to 234 | Cc1ccc(NC(=O)NCc2ccc3c(c2)C(=O)N(C2(C)CCC(=O)NC2=O)C3=O)cc1Cl (centres undefined)
27 | 188 to 189 | Cn1cc(OS(C)(=O)=O)c(=O)c2cc(F)ccc21

Row | melting point [°C] | Structure (SMILES)
28 | 102 | COc1cc(/C=C/C(=O)O)cc(OC)c1OCc1ccccc1
29 | 209 to 210 | O=C(O)[C@@H]1C[C@H](SCc2ccc(C3CCCCC3)cc2)CN1
30 | 137 to 140 | Cc1c(C)c2c(c(C)c1NC(=O)OCC(Cl)(Cl)Cl)C(c1ccc(C(C)C)cc1)CO2 (centres undefined)
31 | 200 to 204 | Cn1c(-c2ccc(O)cc2)cc2ccc(O)cc21
32 | 111 | CCOC(=O)N1CCC(Nc2nc3cccnc3n2Cc2ccc(CC)o2)CC1
33 | 136 to 138 | N#Cc1ccc2[nH]cc(C3CCC(=O)C3)c2c1 (centres undefined)
34 | 255 | COc1cc(CC(=O)Nc2ccc(C3CN(Cc4ccccc4)CC3C(=O)O)cc2)ccc1NC(=O)Nc1ccccc1C (centres undefined)
35 | > 300 | CCn1ncc2c1ncc1c(NC)nc3ncnn3c12
36 | 152 to 154 | COC(=O)C1Cc2c([nH]c3ccccc23)C(C)N1 (centres undefined)
37 | 192 to 193 | CC(=O)c1c(C#N)nn(-c2c(Cl)cc(OC(F)(F)F)cc2Cl)c1N
38 | > 300 | COc1ccc(C(=O)Nc2cc(NC(=O)c3cccc(NS(C)(=O)=O)c3)ccc2C)cc1OC
39 | 186 to 187 | CCCC1(S(=O)(=O)CCCN2CCN(C)CC2)C(=O)N(S(=O)(=O)c2ccc3ccccc3c2)C2CCNC21 (centres undefined)
40 | 205 to 207 | O=C(Nc1c(C(O)(C(F)(F)F)C(F)(F)F)ccc2ccccc12)c1cc(Cl)cc(Cl)c1
41 | 94 | CC(=O)OCC(C(OC(C)=O)c1cccc(F)c1)[N+](=O)[O-] (centres undefined)
42 | 188 to 190 | CC(=O)C1=C(O)C(C(=O)C=Cc2ccc(C)cc2)C(=O)OC1=O (centres undefined)
43 | 150 to 151 | CCOC(=O)[C@@H]([C@H](N)C(=O)O)[C@@H](C)O
44 | 75.5 to 77 | CC(C)n1nc(C#Cc2ccccc2)ccc1=O
45 | 228 | Cc1ccc(-c2cncc(OC3SCC(O)C(O)C3O)c2)cc1 (centres undefined)
46 | 189 to 190 | CON=C(Nc1nc(OC)nc(OC)n1)NS(=O)(=O)c1ccccc1-c1ccccc1
47 | 113 to 115 | COC(=O)C1CCCN(COS(C)(=O)=O)c2c1cc(O)c1ccccc21 (centres undefined)
48 | 260 | COc1ccc2c(c1)CCN(CCc1ccc(NC(=O)c3cccc4c(=O)c5cccc(OC)c5[nH]c34)cc1)C2
49 | 300 | Brc1cc2c(cn1)[nH]c1ccccc12
50 | 97 to 98 | Cn1cc(S(=O)(=O)NC(C)(C)C)cc1C=O
51 | 94.5 to 95 | Cc1ccc(CC(O)=S)cc1
52 | 110 to 112 | O=c1c(Cc2ccccc2)c2n(c(=O)n1Cc1ccccc1)CCCS2
53 | 115 | CN(C)c1ccc(-c2c(N3CCCC3C(=O)OC(C)(C)C)c(=O)c2=O)cc1 (centres undefined)

Continued, molecule first:

Row | Structure (SMILES) | melting point [°C]
54 | CNC(=C[N+](=O)[O-])NCCSCc1ccsn1 | 118 to 120
55 | CCCn1ncnc1COc1nc2c(cc1C(C)(C)C)nnn2-c1ccccc1F | 127 to 129
56 | Cc1c(C(=O)O)oc2c(C(C)(C)C)ccc(O)c12 | 219 to 222
57 | CC(=O)Nc1c(Cl)cc(Br)c(C)c1Cl | 173 to 174
58 | O=C(O)c1cn(C2CC2)c2c(F)c(N3CCC(CNCCF)C3)c(F)cc2c1=O (centres undefined) | 134 to 138
59 | O=[N+]([O-])c1cc(Br)ccc1N1CCc2cc(Br)ccc21 | 150 to 152
60 | Cn1cncc1C(c1ccc(Cl)cc1)c1ccc2c(c1)C(c1cccc(Cl)c1)SCC(=O)N2 (centres undefined) | 187
61 | Nc1cc(C(=O)O)ccc1OCCCCCCc1cccc(O)c1O | 172 to 174
62 | CCOC(=O)N(c1ccc(Cl)cc1Cl)c1ccc(Cl)cc1-n1nc(C(=O)O)nc1CCl | 186
63 | COc1cc(C)cc(-c2n[nH]cc2-c2cc(NC[C@H](C)O)nc(Cl)n2)c1 | 256
64 | Fc1ccc(NCc2ccccc2)cc1 | 38 to 39
65 | COC(=O)c1cccc2cc(Cc3cc(NC(C)=O)ncn3)ccc12 | 158 to 160
66 | CCN(CC)CCn1c(=Nc2ccccc2)sc2ncccc2c1=O | 61 to 62
67 | O=[N+]([O-])C1NC=CN1c1cccnc1 (centres undefined) | 261
68 | COc1ccc(C(=O)c2cc(Br)ccc2NC(=O)C(F)(F)F)cc1 | 149
69 | CC(=O)OCc1c(S(C)(=O)=O)ccc(C(=O)O)c1Cl | 219 to 223
70 | CC(=O)N1CCC(C(=O)N2CC[C@@H](N(C)C(=O)c3ccc(C(F)(F)F)cc3)[C@H](c3ccc(Cl)c(Cl)c3)C2)CC1 | 122
71 | c1ccc(-c2ncc(-c3cnc(C4CCCNC4)[nH]3)cn2)cc1 (centres undefined) | 140
72 | CCC(C(=O)NC)n1nnc2ccccc21 (centres undefined) | 136 to 137
73 | Cc1cc(S(=O)(=O)NCC(C)c2ccccc2)ccc1Cl (centres undefined) | 73 to 74
74 | CC1(C)Cc2c(Cl)c([N+](=O)[O-])cc(C(=O)O)c2O1 | 260 to 262
75 | COC(=O)Oc1ccc(N=Cc2ccc(C#N)cc2)cc1 | 145 to 146
76 | COC(C)=CC(=O)NC1CCC(C)CC1 (centres undefined) | 125
77 | CC(=O)CC(=O)Nc1ccc(-c2ncn(-c3ccc(OC(F)(F)F)cc3)n2)cc1 | 159 to 164
78 | CC(C)[C@H](NS(=O)(=O)c1ccc(-c2ccc(Br)cc2)cc1)C(=O)O | 192 to 193
79 | COc1ccc(C=O)cc1OC(=O)CCl | 88 to 89

Row | Structure (SMILES) | melting point [°C]
80 | NCC(c1ccc(Cl)c(Cl)c1)C1CCCCC1O (mixture of isomers) | 117 to 118
81 | O=C(Nc1ccc(-n2nc(C(F)(F)F)cc2C(F)(F)F)cc1)c1cc(Br)c(Br)s1 | 142 to 144
82 | c1ccc2nc3[nH]ncc3cc2c1 | 104 to 106
83 | COC(=O)CCCCCCCCCCCCCCCO | 54.2
84 | S=C(NCCC1CC(c2ccccc2)=NO1)N1CCOCC1 (centres undefined) | 128 to 130
85 | CNCCc1ccc(CCC(=O)O)cc1 | 211 to 212
86 | COC(=O)CCCCCNC(=O)C(COS(C)(=O)=O)NS(=O)(=O)c1ccc(Cl)cc1 (racemic) | 81 to 84
87 | Nc1cccc(CN2CCC(NC(=O)NC(=O)c3ccccc3)CC2)c1 | 194 to 195
88 | O=C1N(Cc2ccccn2)c2ccccc2C12COc1c2ccc2c1OCCO2 (centres undefined) | 205 to 206
89 | Brc1ccc(-n2c(-c3ccccc3)ccc2-c2ccccc2)cc1 | 218 to 219
90 | COc1ccc(C=Cc2ccc(CBr)cc2)cc1 | 147 to 148
91 | O=C1NCc2c(cccc2Oc2ccccc2)N1 | 278 to 280
92 | O=C(CCc1ccc(O)cc1)OCc1ccc([N+](=O)[O-])cc1 | 80 to 82
93 | CCn1cnc2c(Nc3cccc(Cl)c3)nc(N3CCCC(N)C3)nc21 (centres undefined) | 165
94 | Cc1ccc(S(=O)(=O)c2nc(C)c(Br)c(C)n2)cc1 | 157 to 158
95 | Cn1c(CO)ncc(OCc2ccccc2)c1=O | 83 to 84
96 | Cn1cnc2c(Nc3ccc(Cl)cc3)nc(-c3ccccn3)nc21 | 185 to 190
97 | Nc1nc(Oc2ccccc2)nc2nc(-c3ccco3)nn12 | 250 to 252
98 | CC(C)CC1(CC(=O)NO)CCN(CCc2ccccc2)C1=O (centres undefined) | 123 to 124
99 | CCN1C(=O)C(N(CC(F)(F)C(F)(F)F)C(=O)C(C)C(N)=O)COc2ccccc21 (centres undefined) | 152
100 | CCCCCCCCCCCCCCCCOc1ccc(O)cc1 | 87 to 88
101 | O=Cc1cccc2cc(C(=O)OCc3ccccc3)[nH]c12 | 62
102 | O=S1CCn2c1nc(-c1ccc(F)cc1)c2-c1ccncc1 (centres undefined) | 229 to 231
103 | Cc1oc(-c2ccccc2)nc1CCOc1ccc(C[C@H](NC(=O)C=Cc2ccccc2)C(=O)O)cc1 | 207 to 209
104 | O=Cc1cccc(OCCn2ncc3ccccc3c2=O)c1 | 110 to 111
